These results are taken from patent US20220023181A1, “PEROXIDE-LESS BIOPHOTONIC COMPOSITIONS AND METHODS” (KLOX TECHNOLOGIES LIMITED, priority 2015, published 2022).

SMILES strings stand for the structures.

The nature of the assay: Dilution assay with ROS test assay (liposomes + fluorogenic α-tocopherol probe). To be noted: Example 5 first round; illumination 5 or 9 min per sample. How it is done:
For the dilution assay, an amount of a given gel composition is taken and mixed into a volume of PBS in order to dilute the gel. For example, to make a 10 mL solution ten times diluted, a 1 gram sample of the particular gel is mixed into 9 mL of PBS. Thereafter, depending on the make-up of the sample to be tested, an amount of a particular compound, for example urea peroxide (UP) or a particular salt, could be added in order to either boost an amount of the particular compound that was already in the sample to be tested or to test the effect of adding that given compound per se. With respect to adding UP in order to make test samples with various concentrations to be tested in a concomitant series of tests, an initial sample with a high concentration would be prepared from which aliquots would be taken and diluted down with PBS in order to the test samples with the various concentration of UP. In a multi-well plate, the given diluted sample are mixed with 19.1 μL of the liposome solution (to give a final liposome concentration of 15.4 mg/mL in the test sample) in order to provide a 2 mm thickness of the resulting paste-like mixture, this thickness being equivalent to a thickness of gel that would be spread on a patient or used in an in vitro assay. Also present in the sample-liposome mixture is a quantity of the chemical probe that is used in the reactive oxygen species (ROS) test assay (362.9 μL of the of the diluted gel (i.e., the given gel sample that is to be tested) is mixed with 19.1 μL of liposome-probe, as including the chemical probe in the sample-liposome mixture is to ensure that any ROS species will be afforded a maximal opportunity to interact with the probe and thus be detectable as having been generated as a result of any interaction that may occur in the gel composition upon it becoming activated. […] After the illumination is completed, a 100 μL to 300 μL aliquot of the sample-liposome transferred to a 96-well plate for conducting the ROS test (as further described in (iii) below). For the test samples, stock solutions of the samples were made and diluted such that direct comparisons could be made between the samples (e.g., for the measurement of reactive oxygen species).
The ROS test assay utilized in the experimental protocols of the Examples of the present disclosure is that which is described in Krumova et al. “How Lipid Unsaturation, Peroxyl Radical Partitioning, and Chromanol Lipophilic Tail Affect the Antioxidant Activity of a-Tocopherol: direct Visualization via High-Throughput Fluorescence Studies Conducted with Fluorogenic a-Tocopherol Analogues” (J. Am. Chem. Soc. 2012, vol. 134, pages 10102-10113). The assay utilizes highly sensitive fluorogenic α-tocopherol (TOH) analogues that undergo a 30-fold fluorescence intensity enhancement upon their reaction with peroxyl radicals that are generated due to the oxidation of the liposome membrane with ROS species that may be present in the reaction mixture. The assay utilizes a high-throughput microplate reader that relies on the high sensitivity of the TOH probes and provides a quantitative treatment of the temporal evolution of the fluorescence intensity thereby allowing for kinetic information to be obtained under the conditions being analyzed. The TOH analogues are two-segment receptor-reporter probes that consist of a chromanol moiety coupled to the meso position of a BODIPY fluorophore, either by an ester linker (the probe being called H2B-TOH) or via a methylene linker (the probe being called H2B-PMHC). The chromanol moiety quenches the emission of the fluorophore until it is oxidized following reaction with peroxyl radicals. […]

As to `NC(N)=O.OO` [S 20, urea peroxide], the ROS was 0.34 µM.

Turning to `NC(N)=O.OO` [S 21, urea peroxide], the ROS was found to be 0.39 µM.

As for `NC(N)=O.OO` [S 22, urea peroxide], the ROS turned out to be 0.49 µM.

For `NC(N)=O.OO` [S 23, urea peroxide], the ROS is 0.46 µM.

With `NC(N)=O.OO` [S 24, urea peroxide], the ROS was 0.51 µM.

As for `NC(N)=O.OO` [S 25, urea peroxide], the ROS came out at 0.56 µM.

As to `NC(N)=O.OO` [S 26, urea peroxide], the ROS amounted to 0.72 µM.

On to `NC(N)=O.OO` [S 27, urea peroxide], for which the ROS was 0.75 µM.

In the case of `NC(N)=O.OO` [S 28, urea peroxide], the ROS is 0.87 µM.

Consider `NC(N)=O.OO` [S 29, urea peroxide], for which the ROS turned out to be 0.86 µM.
